Reference: ChEMBL document CHEMBL1148883, “Hit-to-lead studies on benzimidazole inhibitors of ITK: discovery of a novel class of kinase inhibitors” (Bioorg Med Chem Lett, 2007)

Legend:
[1] = biological target: T1, Tyrosine-protein kinase ITK/TSK (Homo sapiens, UniProt Q08881); assay: Inhibition of human ITK by DELFIA assay
T1 sequence (Q08881 whole entry): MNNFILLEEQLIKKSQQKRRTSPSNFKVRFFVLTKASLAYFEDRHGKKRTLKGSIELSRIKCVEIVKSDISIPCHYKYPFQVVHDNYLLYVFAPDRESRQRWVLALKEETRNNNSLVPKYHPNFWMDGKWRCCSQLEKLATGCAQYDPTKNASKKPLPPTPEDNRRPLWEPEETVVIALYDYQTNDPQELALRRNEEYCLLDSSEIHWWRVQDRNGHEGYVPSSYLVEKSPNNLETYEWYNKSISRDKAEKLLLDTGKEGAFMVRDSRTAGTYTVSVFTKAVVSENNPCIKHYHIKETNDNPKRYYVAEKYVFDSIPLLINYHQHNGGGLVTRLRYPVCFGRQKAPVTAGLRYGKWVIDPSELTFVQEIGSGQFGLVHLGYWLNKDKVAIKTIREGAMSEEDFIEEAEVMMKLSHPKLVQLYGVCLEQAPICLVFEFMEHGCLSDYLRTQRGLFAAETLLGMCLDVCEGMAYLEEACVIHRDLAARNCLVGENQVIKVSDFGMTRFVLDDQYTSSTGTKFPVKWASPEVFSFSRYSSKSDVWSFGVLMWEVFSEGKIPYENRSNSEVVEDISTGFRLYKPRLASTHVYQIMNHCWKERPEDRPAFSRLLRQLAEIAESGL

[2] = biological target: T1, Tyrosine-protein kinase ITK/TSK; assay: Inhibition of human ITK in presence of 500 uM ATP
[3] = biological target: Rho-associated protein kinase 2 (Homo sapiens) (UniProt O75116); assay: Inhibition of ROCK2 at 10 uM
[4] = biological target: Fibroblast growth factor receptor 3 (Homo sapiens, UniProt P22607); assay: Inhibition of FGFR3
Fibroblast growth factor receptor 3, sequence (P22607 whole entry): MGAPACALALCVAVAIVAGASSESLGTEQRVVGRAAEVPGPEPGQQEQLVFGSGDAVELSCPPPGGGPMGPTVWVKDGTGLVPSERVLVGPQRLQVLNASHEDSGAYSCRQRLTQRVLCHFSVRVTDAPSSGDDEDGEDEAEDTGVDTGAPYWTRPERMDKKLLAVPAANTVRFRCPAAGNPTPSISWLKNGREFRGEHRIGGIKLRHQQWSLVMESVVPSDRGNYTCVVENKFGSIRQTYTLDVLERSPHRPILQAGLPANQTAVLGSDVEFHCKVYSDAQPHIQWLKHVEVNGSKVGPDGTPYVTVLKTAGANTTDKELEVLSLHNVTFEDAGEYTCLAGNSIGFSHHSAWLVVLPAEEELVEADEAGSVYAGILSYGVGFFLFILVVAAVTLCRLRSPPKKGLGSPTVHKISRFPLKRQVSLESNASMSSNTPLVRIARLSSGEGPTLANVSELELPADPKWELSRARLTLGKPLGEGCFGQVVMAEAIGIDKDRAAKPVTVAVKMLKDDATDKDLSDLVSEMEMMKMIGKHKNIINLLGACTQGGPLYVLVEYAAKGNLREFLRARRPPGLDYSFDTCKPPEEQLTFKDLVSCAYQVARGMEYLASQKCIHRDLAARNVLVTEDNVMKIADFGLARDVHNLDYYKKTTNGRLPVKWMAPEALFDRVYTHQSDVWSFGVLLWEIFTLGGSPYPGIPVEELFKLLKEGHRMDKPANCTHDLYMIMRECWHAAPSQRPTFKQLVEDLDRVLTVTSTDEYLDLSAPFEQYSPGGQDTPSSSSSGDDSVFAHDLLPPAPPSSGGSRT

[5] = biological target: T1, Tyrosine-protein kinase ITK/TSK; assay: Inhibition of human ITK in presence of 100 uM ATP
[6] = biological target: Serine/threonine-protein kinase Chk1 (Homo sapiens) (UniProt O14757); assay: Inhibition of CHK1 at 10 uM
[7] = biological target: Ephrin type-A receptor 2 (Homo sapiens, UniProt P29317); assay: Inhibition of ECK
Ephrin type-A receptor 2, sequence (P29317 whole entry): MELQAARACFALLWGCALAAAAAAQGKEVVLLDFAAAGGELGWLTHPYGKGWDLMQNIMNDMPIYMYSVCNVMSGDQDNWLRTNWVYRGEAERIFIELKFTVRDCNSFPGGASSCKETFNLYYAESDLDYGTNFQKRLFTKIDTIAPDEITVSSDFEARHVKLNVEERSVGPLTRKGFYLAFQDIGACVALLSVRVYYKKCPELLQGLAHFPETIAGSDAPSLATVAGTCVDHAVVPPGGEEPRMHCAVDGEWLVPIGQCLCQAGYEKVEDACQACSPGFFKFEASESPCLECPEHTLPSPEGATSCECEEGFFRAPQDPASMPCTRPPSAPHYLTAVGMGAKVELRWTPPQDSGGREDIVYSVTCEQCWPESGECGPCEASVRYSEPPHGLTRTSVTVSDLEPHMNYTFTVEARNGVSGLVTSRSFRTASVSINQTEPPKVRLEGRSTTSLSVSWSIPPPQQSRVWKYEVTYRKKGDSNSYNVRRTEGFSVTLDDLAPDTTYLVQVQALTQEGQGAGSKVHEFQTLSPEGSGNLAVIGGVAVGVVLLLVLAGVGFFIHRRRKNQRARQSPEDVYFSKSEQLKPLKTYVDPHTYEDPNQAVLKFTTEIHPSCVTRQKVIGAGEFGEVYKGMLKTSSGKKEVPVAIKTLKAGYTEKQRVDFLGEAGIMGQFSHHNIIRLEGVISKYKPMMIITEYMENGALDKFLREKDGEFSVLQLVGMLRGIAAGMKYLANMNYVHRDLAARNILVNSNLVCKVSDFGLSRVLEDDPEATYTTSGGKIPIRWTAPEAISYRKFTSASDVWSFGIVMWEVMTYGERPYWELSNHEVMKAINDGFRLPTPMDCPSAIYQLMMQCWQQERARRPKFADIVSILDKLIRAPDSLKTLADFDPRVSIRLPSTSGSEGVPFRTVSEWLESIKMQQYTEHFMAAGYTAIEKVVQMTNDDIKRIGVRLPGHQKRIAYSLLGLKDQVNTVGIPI

[8] = biological target: Cytoplasmic tyrosine-protein kinase BMX (Homo sapiens, UniProt P51813); assay: Inhibition of BMX
[9] = biological target: Cyclin-dependent kinase 2 (Homo sapiens) (UniProt P24941); assay: Inhibition of CDK2 at 10 uM
[10] = biological target: Tyrosine-protein kinase Tec (Homo sapiens, UniProt P42680); assay: Inhibition of TEC
Tyrosine-protein kinase Tec, sequence (P42680 whole entry): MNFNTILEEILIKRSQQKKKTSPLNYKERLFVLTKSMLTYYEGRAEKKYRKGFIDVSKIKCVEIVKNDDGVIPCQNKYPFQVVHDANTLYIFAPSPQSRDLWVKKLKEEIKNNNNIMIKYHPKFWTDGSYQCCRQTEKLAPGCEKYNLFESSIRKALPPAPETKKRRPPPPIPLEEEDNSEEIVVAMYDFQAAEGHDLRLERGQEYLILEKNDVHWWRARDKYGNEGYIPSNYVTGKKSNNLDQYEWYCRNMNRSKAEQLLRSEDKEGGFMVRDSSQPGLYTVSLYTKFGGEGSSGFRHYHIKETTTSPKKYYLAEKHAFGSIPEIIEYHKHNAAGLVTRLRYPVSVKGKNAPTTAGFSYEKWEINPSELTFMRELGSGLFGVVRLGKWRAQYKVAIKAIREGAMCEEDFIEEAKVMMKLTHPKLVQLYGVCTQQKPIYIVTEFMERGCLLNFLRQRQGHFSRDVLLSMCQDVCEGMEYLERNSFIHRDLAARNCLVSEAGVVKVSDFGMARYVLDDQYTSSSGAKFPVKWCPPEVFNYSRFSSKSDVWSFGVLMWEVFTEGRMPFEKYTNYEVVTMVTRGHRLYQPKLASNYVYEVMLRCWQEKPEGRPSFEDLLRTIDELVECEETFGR

[11] = biological target: Tyrosine-protein kinase SYK (Homo sapiens) (UniProt P43405); assay: Inhibition of SYK at 10 uM
[12] = Inhibition of IRK; parameters: species or system Homo sapiens
[13] = biological target: Tyrosine-protein kinase BTK (Homo sapiens, UniProt Q06187); assay: Inhibition of BTK
Tyrosine-protein kinase BTK, sequence (Q06187 whole entry): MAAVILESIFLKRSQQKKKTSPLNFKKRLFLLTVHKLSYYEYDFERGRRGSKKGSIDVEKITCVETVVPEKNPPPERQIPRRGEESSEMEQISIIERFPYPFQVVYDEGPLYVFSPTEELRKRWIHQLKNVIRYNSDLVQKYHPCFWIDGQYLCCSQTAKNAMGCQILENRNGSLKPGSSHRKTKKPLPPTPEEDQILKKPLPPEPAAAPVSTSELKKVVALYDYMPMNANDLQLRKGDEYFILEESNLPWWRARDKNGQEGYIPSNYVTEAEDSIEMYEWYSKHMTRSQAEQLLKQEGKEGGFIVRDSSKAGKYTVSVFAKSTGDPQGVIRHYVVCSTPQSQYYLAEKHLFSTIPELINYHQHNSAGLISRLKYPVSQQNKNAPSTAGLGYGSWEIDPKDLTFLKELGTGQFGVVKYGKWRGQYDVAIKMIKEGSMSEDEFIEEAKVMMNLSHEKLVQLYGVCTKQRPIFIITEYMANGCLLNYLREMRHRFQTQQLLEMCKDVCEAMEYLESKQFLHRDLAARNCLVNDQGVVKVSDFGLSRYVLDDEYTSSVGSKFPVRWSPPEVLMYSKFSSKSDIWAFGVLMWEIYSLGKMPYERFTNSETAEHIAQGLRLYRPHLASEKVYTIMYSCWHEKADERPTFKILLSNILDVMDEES

[14] = biological target: Protein kinase C beta type (Homo sapiens) (UniProt P05771); assay: Inhibition of PKCbeta at 10 uM
[15] = biological target: T1, Tyrosine-protein kinase ITK/TSK; assay: Inhibition of human ITK in presence of 3 uM ATP
[16] = biological target: T1, Tyrosine-protein kinase ITK/TSK; assay: Inhibition of human ITK in presence of 20 uM ATP
[17] = biological target: T1, Tyrosine-protein kinase ITK/TSK; assay: Effect on human ITK in DT40 cells assessed as […] of calcium influx by FLIPR assay; type: cell-based
[18] = biological target: Platelet-derived growth factor receptor (Homo sapiens) (UniProt P09619+P16234); assay: Inhibition of PDGFR at 10 uM; type: protein-complex assay
[19] = biological target: Tyrosine-protein kinase Lyn (Homo sapiens, UniProt P07948); assay: Inhibition of LYN
[20] = biological target: Cyclin-dependent kinase 5 (Homo sapiens) (UniProt Q00535); assay: Inhibition of CDK5 at 10 uM
Cyclin-dependent kinase 5 (Homo sapiens), sequence (Q00535 whole entry, looked up): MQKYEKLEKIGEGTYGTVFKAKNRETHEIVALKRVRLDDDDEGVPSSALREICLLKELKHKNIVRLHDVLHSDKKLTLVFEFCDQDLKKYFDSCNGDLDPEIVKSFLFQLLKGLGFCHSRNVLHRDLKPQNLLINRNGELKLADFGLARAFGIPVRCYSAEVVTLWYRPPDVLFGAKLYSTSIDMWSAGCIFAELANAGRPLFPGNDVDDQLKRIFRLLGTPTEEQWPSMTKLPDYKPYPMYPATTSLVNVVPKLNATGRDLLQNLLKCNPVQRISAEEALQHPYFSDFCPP

[21] = biological target: MAP kinase-activated protein kinase 2 (Homo sapiens) (UniProt P49137); assay: Inhibition of MAPKAPK2 at 10 uM
MAP kinase-activated protein kinase 2 (Homo sapiens), sequence (P49137 whole entry, looked up): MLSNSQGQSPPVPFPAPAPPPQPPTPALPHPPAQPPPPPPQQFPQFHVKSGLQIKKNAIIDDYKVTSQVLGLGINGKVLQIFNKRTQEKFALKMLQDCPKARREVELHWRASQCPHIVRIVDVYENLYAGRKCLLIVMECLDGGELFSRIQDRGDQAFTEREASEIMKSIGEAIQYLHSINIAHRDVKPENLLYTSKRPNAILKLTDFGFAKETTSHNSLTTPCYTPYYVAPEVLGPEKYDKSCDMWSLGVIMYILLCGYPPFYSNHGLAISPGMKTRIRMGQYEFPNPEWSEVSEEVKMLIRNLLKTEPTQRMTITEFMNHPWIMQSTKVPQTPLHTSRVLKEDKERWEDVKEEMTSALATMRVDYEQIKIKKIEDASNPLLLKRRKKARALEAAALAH

[22] = biological target: Tyrosine-protein kinase TXK (Homo sapiens, UniProt P42681); assay: Inhibition of TXK
[23] = biological target: Vascular endothelial growth factor receptor 1 (Homo sapiens, UniProt P17948); assay: Inhibition of VEGFR1
[24] = biological target: Dual specificity mitogen-activated protein kinase kinase 1 (Homo sapiens) (UniProt Q02750); assay: Inhibition of MKK1 at 10 uM
[25] = biological target: Hepatocyte growth factor receptor (Homo sapiens, UniProt P08581); assay: Inhibition of HGFR
[26] = biological target: Epidermal growth factor receptor (Homo sapiens, UniProt P00533); assay: Inhibition of EGFR
[27] = biological target: Tyrosine-protein kinase JAK3 (Homo sapiens) (UniProt P52333); assay: Inhibition of JAK3 at 10 uM
Tyrosine-protein kinase JAK3 (Homo sapiens), sequence (P52333 whole entry): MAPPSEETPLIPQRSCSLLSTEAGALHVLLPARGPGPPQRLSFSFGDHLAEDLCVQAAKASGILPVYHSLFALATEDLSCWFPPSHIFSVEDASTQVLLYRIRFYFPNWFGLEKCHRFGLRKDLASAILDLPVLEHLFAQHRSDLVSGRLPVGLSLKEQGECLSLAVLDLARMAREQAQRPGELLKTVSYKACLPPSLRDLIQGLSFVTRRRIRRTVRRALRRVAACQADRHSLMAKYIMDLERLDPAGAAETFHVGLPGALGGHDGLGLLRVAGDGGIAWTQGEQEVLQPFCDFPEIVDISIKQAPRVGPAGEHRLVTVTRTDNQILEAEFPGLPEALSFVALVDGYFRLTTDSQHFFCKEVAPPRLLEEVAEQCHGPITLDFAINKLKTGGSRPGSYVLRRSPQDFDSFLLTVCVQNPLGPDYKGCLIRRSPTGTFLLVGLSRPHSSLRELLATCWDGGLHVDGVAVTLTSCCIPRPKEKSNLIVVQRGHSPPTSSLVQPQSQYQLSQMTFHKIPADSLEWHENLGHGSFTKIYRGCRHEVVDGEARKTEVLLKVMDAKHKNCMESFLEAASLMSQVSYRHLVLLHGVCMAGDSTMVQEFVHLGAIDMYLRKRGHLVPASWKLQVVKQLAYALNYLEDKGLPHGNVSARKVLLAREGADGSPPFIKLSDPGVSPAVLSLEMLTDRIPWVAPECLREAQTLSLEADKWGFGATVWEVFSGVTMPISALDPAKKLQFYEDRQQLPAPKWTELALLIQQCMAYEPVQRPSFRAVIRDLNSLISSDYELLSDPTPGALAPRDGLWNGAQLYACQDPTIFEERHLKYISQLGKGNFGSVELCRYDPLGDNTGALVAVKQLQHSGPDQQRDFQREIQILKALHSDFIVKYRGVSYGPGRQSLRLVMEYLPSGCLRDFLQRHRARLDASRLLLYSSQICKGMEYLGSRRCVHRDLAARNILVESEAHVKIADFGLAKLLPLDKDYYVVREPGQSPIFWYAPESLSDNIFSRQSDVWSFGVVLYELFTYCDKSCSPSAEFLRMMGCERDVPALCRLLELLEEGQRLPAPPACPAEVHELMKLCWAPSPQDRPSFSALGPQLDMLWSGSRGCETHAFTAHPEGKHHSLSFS

Which IC50 [1] does the source give for `NC(=O)CCn1c(NC(=O)c2ccccc2)nc2cc(C(=O)N(C3CCCCC3)C3CCCCC3)ccc21` here?
The IC50 was greater than 20000 nM.

With `CN(C(=O)C1CCCCC1)c1ccc2c(c1)nc(NC(=O)c1cccs1)n2CCCN` as the molecule, how does the IC50 [2] read?
Its IC50 is 1100 nM.

And the inhibition [3]?
Its inhibition is -1%.

And the IC50 [4]?
Its IC50 is greater than 6000 nM.

And the IC50 [5]?
The IC50 was 240 nM.

And the inhibition [6]?
Its inhibition is 8%.

And the IC50 [7]?
The IC50 was greater than 10000 nM.

What about the IC50 [8] of the same molecule?
The IC50 was greater than 22000 nM.

And the inhibition [9]?
Its inhibition is 7%.

And the IC50 [10]?
Its IC50 is 22000 nM.

What about the inhibition [11] of the same molecule?
The inhibition was 6%.

What about the IC50 [12] of the same molecule?
Its IC50 is 200 nM.

And the IC50 [13]?
The IC50 was greater than 22000 nM.

What about the inhibition [14] of the same molecule?
The inhibition was 21%.

And the IC50 [15]?
The IC50 was 25 nM.

And the IC50 [16]?
Its IC50 is 80 nM.

What about the IC50 [17] of the same molecule?
Its IC50 is 2400 nM.

And the inhibition [18]?
The inhibition was 10%.

What about the IC50 [19] of the same molecule?
The IC50 was greater than 10000 nM.

And the inhibition [20]?
The inhibition was -4%.

What about the inhibition [21] of the same molecule?
The inhibition was 1%.

And the IC50 [22]?
Its IC50 is 1400 nM.

What about the IC50 [23] of the same molecule?
The IC50 was greater than 10000 nM.

What about the inhibition [24] of the same molecule?
Its inhibition is -2%.

What about the IC50 [1] of the same molecule?
The IC50 was 25 nM.

What about the IC50 [25] of the same molecule?
The IC50 was greater than 10000 nM.

And the IC50 [26]?
Its IC50 is greater than 6000 nM.

And the inhibition [27]?
Its inhibition is -7%.

Which IC50 [1] does the source give for `NC(=O)CCn1c(NC(=O)c2ccccc2)nc2cc(C(=O)NC3CCCCC3)ccc21` here?
Its IC50 is greater than 20000 nM.

Which IC50 [1] does the source give for `NC(=O)CCn1c(NC(=O)c2ccsc2)nc2cc(C(=O)NC3CCCCC3)ccc21` here?
The IC50 was greater than 20000 nM.

With `NCCCn1c(NC(=O)c2cccs2)nc2cc(C(=O)OC3CCCCC3)ccc21` as the molecule, how does the IC50 [1] read?
Its IC50 is greater than 20000 nM.
